The record followed here is patent US20240218385A1, “NEGATIVE-STRAND RNA VIRAL VECTOR AND PLANT GENOME EDITING METHOD WITHOUT TRANSFORMATION” (ZHEJIANG UNIVERSITY, priority 2021, published 2024).

Common to all, as to format: cell-based
Assay [1] concerns PDS gene crPDS1 target site. Description: Mutation genotypes at the crPDS1 target in regenerated N. benthamiana plants after antiviral treatment (HTS). The settings on record: for proportion of M0 plants with mutations at the target site: ribavirin 40 mg/L, favipiravir 40 mg/L, remdesivir 1.2 mg/L. An excerpt: Plant regeneration through culturing the leaf tissues infected with the TSWV vectors are usually ineffective in eliminating the virus. The embodiment investigated the effect of antiviral treatment during plant regeneration on virus clearance using leaf tissues infected with the TSWV-Cas12a-crRNA vector targeting the N. benthamiana crPDS1 site. […] After 35 days of culturing, explants together with induced callus were transferred to an induction medium without antiviral agents until day 55, and then the regenerated seedlings were transferred to a rooting medium. Three independent biological replicates were included in each group, and 30 plants were randomly selected in each biological replicate of each group for subsequent analysis. Total RNA was extracted from M0 regenerated seedlings, and RT-PCR was conducted using the TSWV N specific primers N/F ([…]; SEQ ID NO: 131) and N/R ([…]; SEQ ID NO: 132) to examine the virus clearance rate. The primers Nb/actin/F ([…]; SEQ ID NO: 133) and Nb/actin/R ([…]; SEQ ID NO: 134) for amplification of the NbActin cDNA served as an internal control. […] In contrast, the mock treatment had only 4.4% of virus-free regenerated plants.
To further evaluate the effect of drug treatment on the efficiency of gene editing in the regenerated plants, DNA sequences containing the target loci were PCR amplified using specific primers (SEQ ID NO: 70 and 71), and the resulting amplicons were high-throughput sequenced. The mutation type of each plant was analyzed, and the editing efficiency of each group was calculated. We used the following definitions to call the putative genotype: wild-type (WT) with editing efficiency (indels %) of 0-10.0%; chimeric (Chi) with 10%<indels %≤35.0%; heterozygous (He) with 35.0%<indels %≤80.0%, i.e., one allele is edited at the target site but the other allele is wild-type; homozygous (Ho) with indels % between 80.0% and 100.0% if both alleles have the same type of editing, and biallelic (Bi) if two alleles produced two different types of editing.

Assay [2] has as its system PDS genes crPDS1 target sites. Description: Target mutations in regenerated tobacco plants after antiviral treatment (HTS). An excerpt:
(§1) This embodiment further investigates the impact of antiviral drug treatment on virus clearance and mutant plant recovery using tobacco leaf tissues infected with the TSWV vectors for tissue culture and regeneration. We used the recombinant TSWV-Cas12a-crRNA vector described in Example 24 as an example, which targets the crPDS1 target sites of both PDS genes in tobacco. The systemic leaves infected with this virus vector were used as explants for tissue culture and plant regeneration, following the same experimental protocol as described in Example 24.
(§2) The distribution of mutant genotypes in the regenerated plants from each drug treatment group was further analyzed.

Assay [3] relates to TSWV. Description: TSWV clearance from regenerated tobacco plants by antiviral treatment.
Text: as §1, §2

Assay [4] has as its system TSWV. Description: TSWV clearance from regenerated N. benthamiana plants by antiviral treatment during tissue culture (RT-PCR with N-specific primers). The settings on record: 40 mg/L in medium; explants infected with TSWV-Cas12a-crRNA targeting crPDS1.

Regarding `NC(=O)c1nc(F)c[nH]c1=O` [favipiravir], the “total editing efficiency compared to the mock group” value in assay [1] (M0 plants) is recorded as “lower than that of the mock group”. Moreover, the “proportion of Ho/Bi types compared to the mock group” value in assay [1] (M0 plants, PDSa and PDSb) is reported as “significantly higher than that of the mock group”. In addition, the “proportion of M0 plants with mutations at the target site” value in assay [1] (PDSa and PDSb) is listed as “lowest mutation rates”.
Regarding `NC(=O)c1ncn([C@@H]2O[C@H](CO)[C@@H](O)[C@H]2O)n1` [ribavirin], the “plants with tetra-allelic mutations at the crPDS1 target site” value in assay [1] (40 mg/L ribavirin in medium) worked out at 28.9%. Further, in assay [1] (M0 plants, PDSa and PDSb), the “proportion of Chi types compared to the mock group” value is listed as “decreased” and the “proportion of Ho/Bi types compared to the mock group” value is reported as “increased in both homoeologs”. Further, the “proportion of M0 plants with mutations at the target site” value in assay [1] (PDSa and PDSb) was “highest proportion of plants with mutations”. Moreover, the “proportion of mutation types in regenerated plants” value in assay [2] is reported as “increased the proportion of various mutation types”. Also, in assay [2] (HTS), the “percentage of regenerated plants carrying target mutations” value was “significantly higher than that in the control treatment and other drug treatment groups”. In the assay with TSWV [3], the “presence of viral vectors in the regenerated plants” value is listed as “effectively cleared the virus from all of the regenerated plants”. In addition, the “TSWV clearance rate (regenerated plants free of virus)” value in the assay on TSWV [4] is 100%.
